Counter-ions that a name gives are not always drawn.
Experiment: Absorption and fluorescence maxima of the dye in water
Type: physicochemical
Details: H2O

SMILES | λMax.absorption (H2 O) | λMax.fluorescence (H2 O)
CC1(C)C(=CC=CC=CC=CC2=[N+](CCCCS(=O)(=O)[O-])c3ccc(C(=O)N[C@H]4C(O)O[C@H](CO)[C@@H](O)[C@@H]4OS(=O)(=O)O)cc3C2(C)C)N(CCCCS(=O)(=O)O)c2ccc(C(=O)N[C@H]3C(O)O[C@H](CO)[C@@H](O)[C@@H]3OS(=O)(=O)O)cc21 (stereo partly drawn) [Example 3, Bis-1,1'-(4-Sulfobutyl)indotricarbocyanine-5,5'-dicarboxylic acid-di-α-D-glucosamide-di-3"-sulfate, trisodium salt] | 754 nm | 790 nm
CC1(C)C(=CC=CC=CC=CC2=[N+](CCCCS(=O)(=O)[O-])c3ccc(C(=O)NC4OC(CO)C(OC5OC(CO)C(OC6OC(CO)C(O)C(O)C6O)C(O)C5O)C(O)C4O)cc3C2(C)C)N(CCCCS(=O)(=O)O)c2ccccc21 (stereo not shown) [Example 5] | 748 nm | 779 nm
CC1(C)C(=CC=CC=CC=CC2=[N+](CCCCS(=O)(=O)[O-])c3ccc(C(=O)NCC(COS(=O)(=O)O)OS(=O)(=O)O)cc3C2(C)C)N(CCCCS(=O)(=O)O)c2ccccc21 (stereo not shown) [Example 1, N-(2,3-disulfato)propyl-1,1'-bis-(4-sulfobutyl)indotricarbocyanine-5-carboxylic acid amide, trisodium salt] | 746 nm | 780 nm

Further lines, results first:

λMax.absorption (H2 O) | λMax.fluorescence (H2 O) | SMILES
745 nm | 779 nm | CC1(C)C(=CC=CC=CC=CC2=[N+](CCCCS(=O)(=O)[O-])c3ccc(C(=O)N[C@H]4C(O)O[C@H](CO)[C@@H](O)[C@@H]4OS(=O)(=O)O)cc3C2(C)C)N(CCCCS(=O)(=O)O)c2ccccc21 (stereo partly drawn) [Example 2, Bis-1,1'-(4-Sulfobutyl)indotricarbocyanine-5-carboxylic acid-α-D-glucosamide-3"-sulfate, disodium salt]
746 nm | 779 nm | CC1(C)C(=CC=CC=CC=CC2=[N+](CCCCS(=O)(=O)[O-])c3ccc(C(=O)N[C@H]4C(O)O[C@H](CO)[C@H](O)[C@@H]4O[C@@H]4O[C@H](C(=O)O)[C@@H](O)[C@H](O)[C@H]4O)cc3C2(C)C)N(CCCCS(=O)(=O)[O-])c2ccccc21.[Na+] (stereo partly shown) [Example 4, N-Chondrosin-bis-1,1'-(4-sulfobutyl)indotricarbocyanine-5-carboxylic acid amide, sodium salt]

Reference: patent US6329531A, “Optical diagnostic agents for diagnosis of neurodegenerative diseases by means of near infrared radiation (NIR radiation)” (Schering AG, priority 1996, dated 2001)
